Here are results for 13 molecules from patent US8501811B2, “TASPASE1 inhibitors and their uses” (Washington University, priority 2010, dated 2013).

For assay [1], the target named is T1, recombinant Taspase1 (rTaspase1) (Homo sapiens, UniProt Q9H6P5).
T1 sequence (Q9H6P5 1-233 limits assumed): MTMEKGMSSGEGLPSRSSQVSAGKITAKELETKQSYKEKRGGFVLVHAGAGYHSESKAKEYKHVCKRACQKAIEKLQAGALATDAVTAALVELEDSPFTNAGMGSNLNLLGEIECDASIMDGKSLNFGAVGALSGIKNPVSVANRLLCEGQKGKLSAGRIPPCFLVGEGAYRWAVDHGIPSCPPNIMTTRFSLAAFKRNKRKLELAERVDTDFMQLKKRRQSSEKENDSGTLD
Nature of the assay: Taspase1-MLL in vitro cleavage assay (IVTT 35S methionine labeled p75MLL reporter, SDS-PAGE, autoradiography). The class given is biochemical. As to conditions: for IC50: rTaspase1 pretreated 30 minutes at room temperature, then p75MLL reporter 30 minutes at 30° C., read-out: IC50 of Taspase1 inhibition (p75MLL cleavage); for Effect of increasing pretreatment time on Taspase1 inhibition: 5 μM, pre-incubation for increasing periods of time; for Inhibition of Taspase1-mediated p75MLL cleavage at 1 mM: 1 mM (up to 1 mM); for Inhibition of Taspase1-mediated p75MLL cleavage (in words): indicated concentrations, 30 minutes pretreatment.

The target of assay [2] is Recombinant Caspase8 (rCaspase8) (Homo sapiens, UniProt Q14790). In words: Caspase8-BID in vitro cleavage assay (IVTT 35S methionine labeled p22Bid reporter). The format is biochemical. As to conditions: 1 mM, tertiary screen.
Another assay deals with T2, Taspase1 (Homo sapiens, UniProt Q9H6P5).
T2 sequence (Q9H6P5 1-233 limits assumed): T1 sequence (Q9H6P5 1-233 limits assumed)
Nature of the assay: FRET-based Taspase1 proteolytic reporter (FRPR) assay. As to conditions: for EC50: Maybridge library screen, dose-response. The class given is biochemical.

Assay [3] concerns SV40-transformed mouse embryonic fibroblasts (MEFs). Nature of the assay: MTT assay of SV40-transformed MEFs, wild-type versus Taspase1-/-. The format is cell-based. As to conditions: 2 days, relative cell number. (In general: Formazan colour is commonly taken as a measure of viable cells.)
The target in a further assay is autotoxin (Homo sapiens, UniProt Q13822). As to conditions: cited from earlier work.
The test system of another assay is NCI60 cell lines. As to conditions: NCI DTP database; cited from earlier work.

“Also recorded” adds a separate entry of the source. Residues, ends and D or L forms follow the SMILES beside them. *: point of attachment. DNP = 2,4-dinitrophenyl quenching group; X1 = CS(=O)(=O)/C=C/[C@H](CC(=O)O)N*; MCA = fluorogenic coumarin group

Recombinant Caspase8 (rCaspase8), sequence (Q14790 217-374 limits assumed, species assumed): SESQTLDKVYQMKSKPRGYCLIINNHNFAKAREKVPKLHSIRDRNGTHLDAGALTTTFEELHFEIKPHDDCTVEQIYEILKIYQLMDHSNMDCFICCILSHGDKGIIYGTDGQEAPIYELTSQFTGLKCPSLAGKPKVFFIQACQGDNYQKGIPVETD

With `CC[C@H](C)[C@H](NC(C)=O)C(=O)N[C@@H](CO)C(=O)N[C@@H](CCC(N)=O)C(=O)N[C@@H](CC(C)C)C(=O)N[C@H](/C=C/S(C)(=O)=O)CC(=O)O` [ISQLD-vinyl sulfone] (Ac-ISQL-X1; N-terminus and C-terminus assumed), the IC50 in assay [1] was determined as 29.4 µM.
For the molecule `O=[As](O)(O)c1ccc(Cc2ccc([As](=O)(O)O)cc2)cc1` [NSC48300, [4-[(4-arsonophenyl)methyl]phenyl]arsonic acid], in assay [1], the “Effect of increasing pretreatment time on Taspase1 inhibition” value was “did not enhance the inhibition”, the “Inhibition of Taspase1-mediated p75MLL cleavage at 1 mM” value is given as “inhibited Taspase1” and the IC50 is approximately 7.5 µM. For the same molecule, the “Effect of increasing pretreatment time on Taspase1 inhibition” value in assay [1] (listed as TASPIN-NSC48300) was “did not exhibit enhanced inhibition”. Moreover, in assay [1] (10 μM), the “Inhibition of Taspase1-mediated p75MLL cleavage at 10 μM” value is listed as “completely inhibited”. In assay [2], the “Inhibition of Caspase8-mediated p22Bid cleavage” value is “only targets Taspase1; also recorded: not Caspase8”. Also, the Ki at Taspase1 (100 nM rTaspase1, varying concentrations of FRPR, read-out: KI of Taspase1 inhibition) came out at 4.22 ± 0.46 µM. Also, the “Mode of Taspase1 inhibition” value on Taspase1 (varying concentrations of FRPR and inhibitor) was “non-competitive inhibition”. In addition, the “Susceptibility of wild-type versus Taspase1-/- SV40-transformed MEFs” value in assay [3] is reported as “more susceptible”. In addition, the Inhibition of autotoxin result at autotoxin is “inhibit autotoxin”. Besides, the “Growth inhibition in the NCI60 screen” value in the assay with NCI60 cell lines is on record as “distinct pattern of growth inhibition”.
As to `Cc1ccc(NC(=S)NNC(=O)Cn2nnc(-c3cccc(Cl)c3Cl)n2)cc1Cl` [RJF 02020], the EC50 at Taspase1 stood at 3.9 µM.
On the same count and under the same terms, for `S=C(NNC(=S)NC1CC2C=CC1C2)Nc1ccc(Br)c(Cl)c1` (centres unmarked) [CD 02506] the value was 1.5 µM.
As for `CC(C)C[C@H](NC(=O)[C@H](Cc1ccccc1)NC(=O)c1cnccn1)B(O)O` [bortezomib], the “Inhibition of Taspase1-mediated p75MLL cleavage (in words)” value in assay [1] is recorded as “no activity”.
`Cc1ccc(-c2nc(NS(=O)(=O)c3cccc4nonc34)sc2C)cc1Cl` [HTS 01888]: the EC50 at Taspase1 worked out at 2.2 µM.
In the case of arsenic acid, in assay [1], the “Inhibition of Taspase1-mediated p75MLL cleavage at 1 mM” value was “no inhibition”.
With `CC[C@H](C)[C@H](NC(=O)[C@H](CCCCN)NC(C)=O)C(=O)N[C@@H](CO)C(=O)N[C@@H](CCC(N)=O)C(=O)N[C@@H](CC(C)C)C(=O)N[C@H](C=O)CC(=O)O` [ISQLD-aldehyde] (Ac-KISQLD-aldehyde), in assay [1], the “Inhibition of Taspase1-mediated p75MLL cleavage (in words)” value was “minimal activity”.
On to “MCA-KISQLDGVDD-DNP ({MCA}-KISQLDGVDD-{DNP}) [FRPR]”, for which the Km in the assay with Taspase1 (rTaspase1 at room temperature, read-out: apparent KM of the reporter substrate) turned out to be 9.06 ± 2.8 µM.
On Taspase1, `Cc1ccc(S(=O)(=O)NC(=O)Nc2nc(-c3ccc(C)c(Cl)c3)c(C)s2)cc1` [HTS 06900] came in with an EC50 of 4 µM.
On the same count and under the same terms, for `O=C(NNC(=S)Nc1cccc(C(F)(F)F)c1)c1sc2ccccc2c1Cl` [BTB 00807] the value was 9.9 µM; for `CC(C)(C)c1cc(C(=O)NNC(=S)Nc2ccccc2)n(Cc2ccc(Cl)cc2Cl)n1` [SPB 08132], 5.9 µM; for `O=C(CO/N=C/c1ccc(Cl)cc1Cl)NNCCC(=S)Nc1cc(Cl)ccc1Cl` [CD 06082], 3.3 µM.

A word on the IC50: it is the concentration that gives 50% inhibition. What is called Ki is the dissociation constant of the complex between target and ligand, obtained from inhibition or displacement. A word on the Km: it is the concentration of substrate that gives half-maximal velocity.
